Measurements published in article PMC6648837 (ACS Omega, 2019).
Read-outs that look alike come from different tables or passages of the source.

Columns and labels:
[1] = target: CYP3A4 (Homo sapiens, UniProt P08684); test: CYP3A4 inhibition assay; assay type: biochemical; settings: for CYP3A4 inhibition compared in words: versus dillapiol (14, 15: versus 13); for increased CYP3A4 inhibition relative to the methyl ester 4a (factor): esters of primary alcohol 2; for times more potent than dillapiol as CYP3A4 inhibitor: dillapiol = 1
Chain of CYP3A4 (P08684 whole entry): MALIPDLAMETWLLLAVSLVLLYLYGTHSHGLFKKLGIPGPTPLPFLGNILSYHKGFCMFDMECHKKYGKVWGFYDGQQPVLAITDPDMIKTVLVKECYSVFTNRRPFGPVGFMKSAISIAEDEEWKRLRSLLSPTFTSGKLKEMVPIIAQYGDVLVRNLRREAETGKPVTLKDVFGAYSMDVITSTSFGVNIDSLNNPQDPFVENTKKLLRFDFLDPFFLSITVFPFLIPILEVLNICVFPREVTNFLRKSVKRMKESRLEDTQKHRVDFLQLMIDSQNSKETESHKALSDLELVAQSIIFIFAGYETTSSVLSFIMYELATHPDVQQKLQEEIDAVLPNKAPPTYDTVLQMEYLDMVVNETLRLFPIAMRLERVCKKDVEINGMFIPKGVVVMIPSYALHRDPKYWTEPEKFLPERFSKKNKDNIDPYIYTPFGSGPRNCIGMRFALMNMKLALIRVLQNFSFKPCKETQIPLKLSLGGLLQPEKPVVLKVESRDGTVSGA

[2] = test system: Colorado potato beetle; settings: in vivo bioassays; cited from earlier work

Question: For `COc1c(CC(C)O)cc2c(c1OC)OCO2` (centres unmarked) [Compound 3], which “CYP3A4 inhibition compared in words” value [1] is on record?
Answer: less potent than dillapiol

Question: With `COc1c(CCCOC(C)=O)cc2c(c1OC)OCO2` [Compound 4a] as the molecule, how does the “CYP3A4 inhibition compared in words” value [1] read?
Answer: essentially the same inhibitory effect as dillapiol

Question: What about the “insecticide synergism of pyrethrum” value [2] of the same molecule?
Answer: no insecticide synergism

Question: Which “increased CYP3A4 inhibition relative to the methyl ester 4a (factor)” value [1] does the source give for `CCCCCC(=O)OCCCc1cc2c(c(OC)c1OC)OCO2` [Compound 4d] here?
Answer: 2.8

Question: What about the IC50 ([1]; human, recombinant CYP3A4 (BD Gentest), probe dibenzyl fluorescein (DBF)) of the same molecule?
Answer: 3.3 µM

Question: Which “insecticide synergism of pyrethrum” value [2] does the source give for `COc1c(CCCOC(=O)c2ccccc2)cc2c(c1OC)OCO2` [Compound 4g] here?
Answer: no insecticide synergism

Question: Which IC50 [1] does the source give for `COc1c(CCCOC(=O)c2ccccc2Cl)cc2c(c1OC)OCO2` [Compound 4h] here?
Answer: 1.3 µM

Question: For `COc1c(CCCOC(=O)c2ccc(Cl)cc2)cc2c(c1OC)OCO2` [Compound 4i], which IC50 [1] is on record?
Answer: 1.6 µM

Question: And the “increased CYP3A4 inhibition relative to the methyl ester 4a (factor)” value [1]?
Answer: greater than 6

Question: For `COc1c(CCCOC(=O)c2ccc(Cl)cc2Cl)cc2c(c1OC)OCO2` [Compound 4j], which “increased CYP3A4 inhibition relative to the methyl ester 4a (factor)” value [1] is on record?
Answer: greater than 6

Question: For `COc1c(CCCOC(=O)C=Cc2ccccc2)cc2c(c1OC)OCO2` [Compound 4l], which IC50 [1] is on record?
Answer: 2.4 µM

Question: Which “increased CYP3A4 inhibition by a factor, benzhydryl versus benzyl group (4m)” value [1] does the source give for `COc1c(CCCOC(=O)C(c2ccccc2)c2ccccc2)cc2c(c1OC)OCO2` [Compound 4n] here?
Answer: 5

Question: Which IC50 [1] does the source give for `COc1c(CC(C)OC(C)=O)cc2c(c1OC)OCO2` (centres unmarked) [Compound 5a] here?
Answer: > 20 µM

Question: With `COc1c(CC(C)OC(=O)c2ccccc2)cc2c(c1OC)OCO2` (centres unmarked) [Compound 5g] as the molecule, how does the IC50 [1] read?
Answer: 3.5 µM

Question: With `C=CCc1cc2c(cc1OC)OCO2` [Compound 8b] as the molecule, how does the “insecticide synergism of pyrethrum” value [2] read?
Answer: increased in vivo synergism relative to dillapiol

Question: For `C=CCc1cc2c(cc1OCc1ccccc1Cl)OCO2` [Compound 8f], which “times more potent than dillapiol as CYP3A4 inhibitor” value [1] is on record?
Answer: 86 times

Question: For `C=CCc1cc2c(cc1OCc1ccccc1OC)OCO2` [Compound 8g], which “times more potent than dillapiol as CYP3A4 inhibitor” value [1] is on record?
Answer: 0.9 times

Question: With `COc1cc2c(cc1CCCOC(=O)C=Cc1ccccc1)OCO2` [Compound 11d] as the molecule, how does the IC50 [1] read?
Answer: 17.2 µM

Question: Which IC50 [1] does the source give for `O=C(C=Cc1ccccc1)OCCCc1cc2c(cc1OCc1ccccc1)OCO2` [Compound 11e] here?
Answer: 4.7 µM

Question: Which IC50 [1] does the source give for `O=C(OCCCc1cc2c(cc1OCc1ccccc1)OCO2)C(c1ccccc1)c1ccccc1` [Compound 11g] here?
Answer: 1 µM
